We go through 1 molecule from patent US10442835B2, “Water-soluble rapamycin derivatives” (Zhejiang Hisun Pharmaceutical Co., Ltd., priority 2016, dated 2019).

A short description of series [1]: In vivo pharmacokinetic study in rats. The arrangement: species or system SD rats. The protocol:
To further study the in vivo pharmacokinetic characteristics of compound I-1 in rats, compound I-1 was administrated to SD rats via intravenous injection. The in vivo pharmacokinetic characteristics and bioavailability of everolimus released in rats were measured, and compared with the pharmacokinetic characteristics of everolimus via oral administration.
Then the animals were observed when blood was sampled every time until the last sample was collected.

A short description of series [2]: Test for solubility in water. In kind it is physicochemical. As to conditions: water, thermodynamic from solid. The protocol: The experiments herein can measure the dissolution profile in water of the compounds according to the present invention.
To a 25 ml volumetric flask, 25 mg everolimus was added, and diluted with acetonitrile to volume. The mixture was shaken till all the solid dissolved, obtaining 1 mg/mL everolimus solution in acetonitrile.
1 mg/mL everolimus solution in acetonitrile was added to a 10 ml volumetric flask, and was diluted with acetonitrile by 2 times, 10 times, 100 times and 1000 times, so as to obtain everolimus solutions in acetonitrile with a concentration of 0.5 mg/mL, 0.1 mg/mL, 0.01 mg/mL and 0.001 mg/mL, respectively.
Each of the three mixtures was shaken till the solid in the volumetric flask stopped to dissolve. Before analyzed by HPLC, 1 mL of each solution was filtrated via a 0.22 μm filter. The solubility of the compounds was calculated from the standard curve using the peak area of the main peak obtained.
Based on the same study method, comparisons of the solubility between sirolimus/temsirolimus and the compounds modified by glutathione are carried out, respectively.

The mark [3] stands for this setting: Sprague-Dawley (SD), rat, everolimus in plasma, everolimus PO 10 mg/kg, male SD rats.

Turning to `CO[C@H]1C[C@@H]2CC[C@@H](C)[C@@](O)(O2)C(=O)C(=O)N2CCCC[C@H]2C(=O)O[C@H]([C@H](C)C[C@@H]2CC[C@@H](OCCO)[C@H](OC)C2)CC(=O)[C@H](C)/C=C(\C)[C@@H](O)[C@@H](OC)C(=O)[C@H](C)C[C@H](C)/C=C/C=C/C=C/1C` [Everolimus, reference compound], the concentration at 3 h in series [1] (Sprague-Dawley (SD), rat, plasma, 3 h, oral administration of everolimus 10.000 mg/kg, male SD rats) was determined as 64.3 ng/mL. In addition, the concentration at 4 h in series [1] (Sprague-Dawley (SD), rat, plasma, 4 h, oral administration of everolimus 10.000 mg/kg, male SD rats) stood at 61.4 ng/mL. In series [1] (Sprague-Dawley (SD), rat, plasma, 6 h, oral administration of everolimus 10.000 mg/kg, male SD rats), this molecule yielded a concentration at 6 h of 32.3 ng/mL. For the same molecule, in series [1] (setting [3]), the AUC(0-inf) (usually total exposure, with the tail of the curve extrapolated) was found to be 454 ng·h/mL; the AUC(0-t) (commonly exposure summed from dosing to a finite time, without extrapolation to infinity) is 454 ng·h/mL; the peak concentration (Cmax) (as a rule, the highest concentration seen after dosing) was found to be 126 ng/mL; the Tmax (as a rule, the time from dosing to the highest level) is 1.91 h. Also, the half-life – broadly, the time needed for the level to fall by half in the phase considered – in series [1] (setting [3]) is 2.2 h. Moreover, the MRT (in general, a mean duration of stay, worked out from the concentration-time curve) in series [1] (Sprague-Dawley (SD), rat, everolimus in plasma, everolimus PO 10 mg/kg, male SD rats, read-out: MRT (mean residence time)) is 3.17 h. Besides, the “AUC Extr” value in series [1] (everolimus in plasma, everolimus PO 10 mg/kg, male SD rats) is 6.90%. In addition, the concentration at 0 h in series [1] (rat, plasma, 0 h, oral administration of everolimus 10.000 mg/kg, male SD rats) came to 0 ng/mL. In series [1] (rat, plasma, 0.25 h, oral administration of everolimus 10.000 mg/kg, male SD rats), this molecule had a concentration at 0.25 h of 17.3 ng/mL. Also, the concentration at 0.5 h in series [1] (rat, plasma, 0.5 h, oral administration of everolimus 10.000 mg/kg, male SD rats) stood at 99.9 ng/mL. In series [1] (rat, plasma, 1 h, oral administration of everolimus 10.000 mg/kg, male SD rats), this molecule gave a concentration at 1 h of 99.1 ng/mL. This molecule also gave a concentration at 1.5 h in series [1] (rat, plasma, 1.5 h, oral administration of everolimus 10.000 mg/kg, male SD rats) of 90.4 ng/mL. The molecule also registered a concentration at 2 h in series [1] (rat, plasma, 2 h, oral administration of everolimus 10.000 mg/kg, male SD rats) of 69.7 ng/mL. Moreover, the concentration at 8 h in series [1] (rat, plasma, 8 h, oral administration of everolimus 10.000 mg/kg, male SD rats) was 16.3 ng/mL. For the same molecule, the concentration at 24 h in series [1] (rat, plasma, 24 h, oral administration of everolimus 10.000 mg/kg, male SD rats) amounted to 2.2 ng/mL. In series [1] (rats orally administrated with everolimus 10 mg/Kg), the “area under the curve (AUC) of plasma concentration of everolimus vs. time” value is “about 450”. Also, the solubility (usually the concentration that dissolves in the medium under given conditions) in series [2] was below 1 µg/mL.
